{
  "source": "paper PMC2633461",
  "about": "“Porcine sclera as a model of human sclera for in vitro transport experiments: histology, SEM, and comparative permeability” (Molecular Vision, 2009)",
  "key": {"[1]": {"description": "Human corneal-scleral rims, which were discarded following harvesting of the corneal button (Regional Cornea Bank, Bologna, Italy), were frozen in liquid nitrogen and used within 15 days of explantation.\n(§1) Permeation experiments were performed in Franz-type diffusion cells with an area of 0.2 cm^2 for human sclera and 0.6 cm^2 for porcine sclera.\n(§2) To reduce edge damage, a thin layer of silicone lubricant was applied to the glass surface, and the minimum force necessary to keep the cell sealed was applied.\n(§3) The receptor compartment contained 4 ml of 25 mM HEPES buffer (pH 7.4) added with 0.9% NaCl, kept at 37 °C, and magnetically stirred. […] At predetermined time intervals, the receptor solution was sampled for the determination of drug permeated.\n(§4) The transscleral flux, i.e., the amount of drug that crosses 1 cm^2 of sclera in 1 h (J, µg/cm^2h) was calculated as the slope of the regression line at the steady-state while the lag time was the intercept of the regression line on the x-axis. The permeability coefficient (P, cm/s) was calculated as J/Cv where Cv represents the concentration of the donor solution.\n(§5) Experiments performed with human sclera were replicated three to four times while those performed on porcine sclera were replicated five to seven times. All the experiments were performed using previously frozen tissues, and acetaminophen permeability was tested also through fresh pig sclera.\n(§6) Acetaminophen and insulin were analyzed by HPLC with a Perkin-Elmer instrument (Norwalk, CT), which is made of an isocratic pump LC250 an UV detector LC290, and the Perkin Elmer Turbochrom Workstation software.\n(§7) Acetaminophen was analyzed using a C18 Novapak® column (150×3.9 mm; Waters, Milford, MA) and a mobile phase composed of 92% (v/v) 10 mM sodium acetate pH 4 and 8% (v/v) acetonitrile, which was pumped at 1 ml/min. The detector was set at 254 nm.\n(§8) Insulin was analyzed using a C18 Symmetry300® column (250×4.6 mm; Waters) at 40 °C and a mobile phase composed of 73% (v/v) aqueous phase and 27% (v/v) acetonitrile, which was pumped at 1 ml/min. The aqueous phase contained anhydrous sodium sulfate 28.4 g/l and phosphoric acid 2.7 ml/l and was adjusted at pH 2.3 with ethanolamine. The detector was set at 214 nm.\n(§9) The excitation and emission λ were 490 and 520 nm, respectively."}, "[2]": {"conditions": "cited from earlier work"}, "[3]": {"description": "Porcine globes were obtained from pigs (Large White, Landrance, Duroc; 10–11 months) that ranged in weight 145–190 kg and came from a local slaughterhouse. Porcine eyes were either used within 24 h of explantation or frozen at −80 °C until use. After thawing, the adherent muscle tissue was removed from the eye bulb, and the anterior segment of the eye was circumferentially cut behind the limbus. The eye was then cut into two halves, the vitreous was removed, and the anterior sclera was used for permeation experiments after the removal of the underling tissues using a cotton swab. The frozen tissues were used within three months of explantation.\nas §1, §2, §3, §4, §5, §6, §7, §8, §9", "remark": "listed apart in the source"}, "[4]": {"conditions": "cited from earlier work", "text": "Regardless of the nature of this interaction, we have estimated that the affinity of insulin for the sclera was the same for porcine and human tissues. […] These values (not statistically different between them, p=0.176) indicate a similar behavior of the two tissues toward insulin and also confirm that insulin has an effective affinity for the sclera. In fact, even if the absolute value of the par ...", "remark": "listed apart in the source"}, "[5]": {"conditions": "no reference given; cited from earlier work", "description": "The permeability was evaluated using three model compounds. […] Insulin has been chosen as a model protein. It has a molecular weight of 5,734 Da, a molecular radius of the monomeric form of 1.13 nm or 2.0 nm, and an isoelectric point of about 5.4. […] Permeation experiment ..."}, "[6]": {"assay": "Affinity of insulin for scleral tissue: partition coefficient, human sclera / aqueous solution", "type": "in vitro ADME", "conditions": "insulin about 100 µg/ml in HEPES pH 7.4 with EDTA and lysine, 0.4 ml on 50-100 mg tissue, 3 h, room temperature, HPLC, mean±SEM, n at least 6", "description": "(§10) Affinity of insulin for scleral tissue was estimated by measuring its partition coefficient between human or porcine sclera and an aqueous solution at pH 7.4. Insulin was dissolved in the aqueous vehicle that was used as donor for the permeation experiments at a concentration of about 100 µg/ml. This solution (0.4 ml) was added to a previously weighed amount of human or porcine sclera (50–100 mg) in a 2.0 ml vial. The insulin solution and the scleral tissues were incubated at room temperature for 3 h. The solution was then filtered (regenerated cellulose, 0.45 µm pore size) and analyzed by HPLC for the determination of the final insulin concentration in the water phase [Wf]. The insulin concentration [S] in the sclera after the incubation period was calculated as:\n(§11) [S]=[Wi] x VW - [Wf] x VW/VS\n(§12) where [Wi] is the initial concentration of insulin in the aqueous phase, [Wf] is the concentration of insulin in the aqueous phase after the incubation period, VW is the volume of the aqueous phase (0.4 ml), and VS is the volume of the sclera, which was estimated by its weight and by considering the scleral density to be equal to 1 g/ml.\n(§13) The partition coefficient (Ks/w) was then calculated as: […]\n(§14) Each experiment was replicated at least six times."}, "[7]": {"assay": "Affinity of insulin for scleral tissue: partition coefficient, porcine sclera / aqueous solution", "type": "in vitro ADME, pig", "conditions": "insulin about 100 µg/ml in HEPES pH 7.4 with EDTA and lysine, 0.4 ml on 50-100 mg tissue, 3 h, room temperature, HPLC, mean±SEM, n at least 6", "description": "as §10, §11, §12, §13, §14"}, "[8]": {"conditions": "cited from earlier work", "remark": "listed apart in the source"}, "[9]": {"conditions": "cited from earlier work", "remark": "listed apart in the source"}, "[10]": {"conditions": "neutral molecules of different lipophilicity, rhodamine 6G electrically charged at the pH of the experiment"}},
  "note": "Where two headings read alike, the source gives them in different places.",
  "data": [
    {"molecule": "CC(=O)Nc1ccc(O)cc1", "note": "[Acetaminophen, acetaminophen]", "values": [
      {"measurement": "Flux through human sclera relative to pig sclera", "setting": "[1]", "result": 2, "unit": "times"},
      {"measurement": "DK (diffusion coefficient x partition coefficient)", "setting": "[1]; SEM", "result": "2.05±0.18", "unit": "cm^2/s x10^−6"},
      {"measurement": "Lag-time", "setting": "[1]; pH 7.4", "result": "no lag time was detectable"},
      {"measurement": "P (permeability coefficient)", "setting": "[1]; pH 7.4", "result": "34.9±3.0", "unit": "cm/s x10^−6"},
      {"measurement": "Permeability coefficient across human sclera", "setting": "[1]; pH 7.4", "result": "3.49 [±0.3] x10^-5 cm/s"},
      {"measurement": "Molecular radius", "setting": "[2]", "result": 0.36, "unit": "nm"},
      {"measurement": "DK (diffusion coefficient x partition coefficient)", "setting": "[3]; SEM", "result": "1.95±0.26", "unit": "cm^2/s x10^−6"},
      {"measurement": "Effect of freezing on tissue permeability (fresh vs previously frozen porcine sclera)", "setting": "[3]; pH 7.4", "result": "did not have any effect on tissue permeability"},
      {"measurement": "P (permeability coefficient)", "setting": "[3]; pH 7.4", "result": "15.6±2.1", "unit": "cm/s x10^−6"},
      {"measurement": "Lag-time", "setting": "[3]; pH 7.4, SEM", "result": "35 ± 2", "unit": "min"}
    ]},
    {"molecule": "CCCC1O[C@@H]2C[C@H]3[C@@H]4CCC5=CC(=O)C=C[C@]5(C)[C@H]4[C@@H](O)C[C@]3(C)[C@]2(C(=O)CO)O1", "note": "(stereo partly shown) [budesonide]", "values": [
      {"measurement": "Partition coefficient sclera (literature)", "setting": "[4]; [10]", "result": 1.2}
    ]},
    {"molecule": "Cc1ccc(-c2cc(C(F)(F)F)nn2-c2ccc(S(N)(=O)=O)cc2)cc1", "note": "[celecoxib]", "values": [
      {"measurement": "Partition coefficient sclera (literature)", "setting": "[4]; [10]", "result": 1.4}
    ]},
    {"molecule": "OC[C@@H](O)[C@@H](O)[C@H](O)[C@H](O)CO", "note": "[mannitol]", "values": [
      {"measurement": "Partition coefficient sclera (literature)", "setting": "[4]; [10]", "result": 0.005}
    ]},
    {"molecule": "CC/N=c1\\cc2oc3cc(NCC)c(C)cc3c(-c3ccccc3C(=O)OCC)c-2cc1C", "note": "[rhodamine 6G]", "values": [
      {"measurement": "Partition coefficient sclera (literature)", "setting": "[4]; [10]", "result": "high affinity"}
    ]},
    {"molecule": "OC[C@H]1O[C@@](CO)(O[C@H]2O[C@H](CO)[C@@H](O)[C@H](O)[C@H]2O)[C@@H](O)[C@@H]1O", "note": "[sucrose]", "values": [
      {"measurement": "Partition coefficient sclera (literature)", "setting": "[4]", "result": 0.6}
    ]},
    {"molecule": "Insulin from bovine pancreas [listing 1 of 2 here]", "values": [
      {"measurement": "Flux", "setting": "[1]; human sclera, previously frozen, Franz-type cell 0.2 cm^2, donor 4.9 mg/ml acetaminophen, 1 mg/ml FD-150 or 1 mg/ml insulin in 25 mM HEPES pH 7.4, receptor HEPES pH 7.4 + 0.9% NaCl (0.3% BSA for insulin), 37 °C, slope at steady state, HPLC-UV (FD-150 fluorescence), mean±SEM, n = 3-4, SEM", "result": "6.93±1.14", "unit": "µg/cm^2h"},
      {"measurement": "P (permeability coefficient)", "setting": "[1]; human sclera, previously frozen, Franz-type cell 0.2 cm^2, donor pH 7.4 HEPES, 37 °C, P = J/Cv, mean±SEM, n = 3-4", "result": "1.93±0.32", "unit": "cm/s x10^−6"},
      {"measurement": "Lag-time", "setting": "[1]; human sclera, previously frozen, intercept of the regression line on the x-axis, donor pH 7.4, 37 °C, mean±SEM, n = 3-4, SEM", "result": "71 ± 6", "unit": "min"},
      {"measurement": "DK (diffusion coefficient x partition coefficient)", "setting": "[1]; human sclera, from P = DK/H with H = tissue thickness (0.59 mm), mean±SEM, SEM", "result": "0.11±0.02", "unit": "cm^2/s x10^−6"},
      {"measurement": "Flux through human sclera relative to pig sclera", "setting": "[1]; ratio human / pig sclera flux", "result": 2, "unit": "times"},
      {"measurement": "isoelectric point", "setting": "[5]", "result": "about 5.4"},
      {"measurement": "Partition coefficient (Ks/w) between sclera and donor solution", "setting": "[6]", "result": "10.3±1.2"},
      {"measurement": "Flux", "setting": "[3]; porcine sclera, previously frozen, Franz-type cell 0.6 cm^2, donor 4.9 mg/ml acetaminophen, 1 mg/ml FD-150 or 1 mg/ml insulin in 25 mM HEPES pH 7.4, receptor HEPES pH 7.4 + 0.9% NaCl (0.3% BSA for insulin), 37 °C, slope at steady state, HPLC-UV (FD-150 fluorescence), mean±SEM, n = 5-7, SEM", "result": "3.74±2.10", "unit": "µg/cm^2h"},
      {"measurement": "Lag-time", "setting": "[3]; porcine sclera, previously frozen, intercept of the regression line on the x-axis, donor pH 7.4, 37 °C, mean±SEM, n = 5-7, SEM", "result": "198 ± 23", "unit": "min"},
      {"measurement": "DK (diffusion coefficient x partition coefficient)", "setting": "[3]; porcine sclera, from P = DK/H with H = tissue thickness (1.25 mm), mean±SEM, SEM", "result": "0.11±0.05", "unit": "cm^2/s x10^−6"},
      {"measurement": "Partition coefficient (Ks/w) between sclera and donor solution", "setting": "[7]", "result": "7.0±1.1"}
    ]},
    {"molecule": "Insulin from bovine pancreas [listing 2 of 2 here]", "values": [
      {"measurement": "Molecular radius of the monomeric form", "setting": "[8]", "result": 1.13, "unit": "nm"},
      {"measurement": "Molecular radius (dimers/hexamers in solution)", "setting": "[9]", "result": 2.5, "unit": "nm"}
    ]}
  ]
}
